≈ marks a conversion by molar mass, not a printed value.
Legend:
[1] = Displacement of (2S)-N-(2-phenylphenyl)-1-[2-[1-(tritritiomethyl)benzimidazol-2-yl]sulfanylacetyl]pyrrolidine-2-carboxamide from human OX1 receptor Ile408-Val mutant expressed on CHO cell membrane measured after 3 hrs by TopCount method; assay type: cell membranes
[2] = Solubility of the compound; assay type: physicochemical
[3] = biological target: T1, Orexin receptor type 2 (Homo sapiens, UniProt O43614); experiment: Displacement of (2S)-N-(2-pyrrol-1-ylphenyl)-1-[2-[1-(tritritiomethyl)benzimidazol-2-yl]sulfanylacetyl]pyrrolidine-2-carboxamide from human OX2 receptor expressed on CHO cell membrane measured after 3 hrs by TopCount method; assay type: cell membranes
T1 sequence (O43614 whole entry): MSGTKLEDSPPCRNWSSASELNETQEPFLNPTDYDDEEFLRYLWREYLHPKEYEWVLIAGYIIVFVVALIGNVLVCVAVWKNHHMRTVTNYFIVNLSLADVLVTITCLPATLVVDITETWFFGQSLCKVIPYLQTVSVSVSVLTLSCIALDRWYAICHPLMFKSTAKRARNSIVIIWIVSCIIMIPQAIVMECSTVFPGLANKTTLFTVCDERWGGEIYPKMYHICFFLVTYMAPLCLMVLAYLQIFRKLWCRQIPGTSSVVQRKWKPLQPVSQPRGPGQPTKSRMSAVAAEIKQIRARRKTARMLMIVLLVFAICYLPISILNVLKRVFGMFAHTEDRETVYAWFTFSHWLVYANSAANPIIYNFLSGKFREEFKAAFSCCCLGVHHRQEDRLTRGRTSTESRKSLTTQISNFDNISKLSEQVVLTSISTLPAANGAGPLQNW

[4] = biological target: Voltage-dependent L-type calcium channel subunit alpha-1C (Homo sapiens, UniProt Q13936); experiment: Inhibition of Cav1.2 (unknown origin)
Chain of Voltage-dependent L-type calcium channel subunit alpha-1C (Q13936 whole entry): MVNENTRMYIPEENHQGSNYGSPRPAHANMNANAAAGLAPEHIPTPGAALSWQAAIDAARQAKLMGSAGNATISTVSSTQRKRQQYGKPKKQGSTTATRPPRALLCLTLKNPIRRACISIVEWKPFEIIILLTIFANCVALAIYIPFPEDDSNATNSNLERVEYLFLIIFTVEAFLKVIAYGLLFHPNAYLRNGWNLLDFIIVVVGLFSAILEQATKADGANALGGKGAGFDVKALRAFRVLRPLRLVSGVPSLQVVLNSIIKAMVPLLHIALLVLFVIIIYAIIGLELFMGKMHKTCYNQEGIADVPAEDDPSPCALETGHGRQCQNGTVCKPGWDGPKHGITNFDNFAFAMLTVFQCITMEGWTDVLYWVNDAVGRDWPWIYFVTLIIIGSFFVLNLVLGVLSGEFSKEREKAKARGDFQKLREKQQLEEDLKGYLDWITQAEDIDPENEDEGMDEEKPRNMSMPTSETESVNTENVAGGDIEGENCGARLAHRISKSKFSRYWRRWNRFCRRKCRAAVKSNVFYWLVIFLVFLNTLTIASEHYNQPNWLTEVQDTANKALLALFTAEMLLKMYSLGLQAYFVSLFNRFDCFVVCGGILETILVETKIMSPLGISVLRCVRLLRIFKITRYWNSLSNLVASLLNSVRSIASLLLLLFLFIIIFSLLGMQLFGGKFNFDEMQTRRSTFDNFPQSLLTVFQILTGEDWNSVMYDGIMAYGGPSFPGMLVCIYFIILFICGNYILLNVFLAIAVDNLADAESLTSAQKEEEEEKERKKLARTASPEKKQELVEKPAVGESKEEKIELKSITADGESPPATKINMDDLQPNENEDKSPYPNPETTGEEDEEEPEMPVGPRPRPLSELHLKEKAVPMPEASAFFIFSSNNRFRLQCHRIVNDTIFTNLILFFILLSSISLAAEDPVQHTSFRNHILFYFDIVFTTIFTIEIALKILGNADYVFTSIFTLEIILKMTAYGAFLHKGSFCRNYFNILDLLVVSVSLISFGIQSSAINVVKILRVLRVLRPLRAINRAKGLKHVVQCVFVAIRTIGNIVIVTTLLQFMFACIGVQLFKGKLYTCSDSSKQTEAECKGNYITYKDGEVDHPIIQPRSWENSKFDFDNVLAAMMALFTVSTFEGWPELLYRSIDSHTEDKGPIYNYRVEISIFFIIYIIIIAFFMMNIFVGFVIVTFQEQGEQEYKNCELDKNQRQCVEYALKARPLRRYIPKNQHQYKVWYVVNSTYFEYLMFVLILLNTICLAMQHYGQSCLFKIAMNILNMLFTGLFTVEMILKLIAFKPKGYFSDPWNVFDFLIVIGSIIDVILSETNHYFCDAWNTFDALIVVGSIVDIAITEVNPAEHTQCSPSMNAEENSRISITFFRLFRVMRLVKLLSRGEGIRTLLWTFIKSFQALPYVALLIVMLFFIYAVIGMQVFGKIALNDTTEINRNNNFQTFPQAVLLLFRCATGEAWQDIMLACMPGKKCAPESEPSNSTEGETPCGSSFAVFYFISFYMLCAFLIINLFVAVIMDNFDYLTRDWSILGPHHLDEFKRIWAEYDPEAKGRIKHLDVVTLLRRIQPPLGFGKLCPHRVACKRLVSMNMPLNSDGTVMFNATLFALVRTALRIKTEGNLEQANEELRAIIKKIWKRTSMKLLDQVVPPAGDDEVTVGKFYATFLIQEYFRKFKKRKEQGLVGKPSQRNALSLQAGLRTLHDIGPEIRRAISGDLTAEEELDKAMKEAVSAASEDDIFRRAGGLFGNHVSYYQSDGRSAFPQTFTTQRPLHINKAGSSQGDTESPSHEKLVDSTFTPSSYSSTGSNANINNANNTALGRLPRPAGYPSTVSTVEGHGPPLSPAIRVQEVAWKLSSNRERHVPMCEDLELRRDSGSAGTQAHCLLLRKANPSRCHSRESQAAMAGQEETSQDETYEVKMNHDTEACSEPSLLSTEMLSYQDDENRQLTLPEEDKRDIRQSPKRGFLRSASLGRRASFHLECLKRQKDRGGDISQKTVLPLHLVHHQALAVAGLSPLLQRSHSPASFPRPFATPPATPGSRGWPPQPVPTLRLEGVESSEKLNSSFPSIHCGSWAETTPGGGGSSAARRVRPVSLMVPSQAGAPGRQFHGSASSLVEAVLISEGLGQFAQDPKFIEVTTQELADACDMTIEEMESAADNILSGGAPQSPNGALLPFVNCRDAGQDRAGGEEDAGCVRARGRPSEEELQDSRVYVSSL

[5] = biological target: Cytochrome P450 2C9 (Homo sapiens, UniProt P11712); experiment: Inhibition of CYP2C9 (unknown origin); assay type: ADME
Chain of Cytochrome P450 2C9 (P11712 whole entry): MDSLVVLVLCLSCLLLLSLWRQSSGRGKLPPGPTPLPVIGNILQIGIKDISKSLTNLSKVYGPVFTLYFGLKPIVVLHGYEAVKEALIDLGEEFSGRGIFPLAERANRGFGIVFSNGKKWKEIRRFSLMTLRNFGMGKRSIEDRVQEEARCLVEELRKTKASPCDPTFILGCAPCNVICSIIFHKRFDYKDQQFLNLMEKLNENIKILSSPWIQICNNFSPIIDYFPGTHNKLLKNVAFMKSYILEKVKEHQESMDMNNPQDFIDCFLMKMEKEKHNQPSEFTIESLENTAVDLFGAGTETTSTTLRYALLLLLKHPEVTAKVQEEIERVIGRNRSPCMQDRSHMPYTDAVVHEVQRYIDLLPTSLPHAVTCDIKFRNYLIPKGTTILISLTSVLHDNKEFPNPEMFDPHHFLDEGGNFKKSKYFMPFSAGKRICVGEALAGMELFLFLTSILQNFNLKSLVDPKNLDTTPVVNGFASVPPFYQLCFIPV

[6] = system: CHO; experiment: Selectivity index, ratio of Ki for human OX2 receptor expressed on CHO cell membrane to Ki for Ile408-Val variant human OX1 receptor expressed on CHO cell membrane; assay type: cell-based
[7] = biological target: Cytochrome P450 3A4 (Homo sapiens, UniProt P08684); experiment: Inhibition of CYP3A4 (unknown origin); assay type: ADME
Chain of Cytochrome P450 3A4 (P08684 whole entry): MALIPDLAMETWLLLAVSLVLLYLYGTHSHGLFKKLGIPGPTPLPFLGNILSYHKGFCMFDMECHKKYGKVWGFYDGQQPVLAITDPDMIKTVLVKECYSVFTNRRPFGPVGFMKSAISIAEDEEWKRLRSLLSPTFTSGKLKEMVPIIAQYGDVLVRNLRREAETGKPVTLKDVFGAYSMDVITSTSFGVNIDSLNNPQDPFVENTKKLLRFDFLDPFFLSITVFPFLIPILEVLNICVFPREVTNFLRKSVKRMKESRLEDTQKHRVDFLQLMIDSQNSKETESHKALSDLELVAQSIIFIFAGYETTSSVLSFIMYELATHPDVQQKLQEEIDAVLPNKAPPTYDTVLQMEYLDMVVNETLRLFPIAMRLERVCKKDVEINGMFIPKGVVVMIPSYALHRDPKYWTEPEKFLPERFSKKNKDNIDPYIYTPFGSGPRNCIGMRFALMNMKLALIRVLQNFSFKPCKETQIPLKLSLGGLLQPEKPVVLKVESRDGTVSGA

[8] = Aqueous solubility of the compound at pH 7; assay type: physicochemical; conditions: aqueous medium

O=C(c1ccccc1-n1nccn1)N1CCC(F)(F)C(Oc2cnc3ccccc3n2)C1 (stereo not given)
Ki [1]: 13 nM | solubility [2]: Insoluble | Ki [3]: 933 nM | inhibition (INH) [4]: Active | inhibition (INH) [5]: Active | Ratio Ki [6]: 72 | inhibition (INH) [7]: Active

C[C@@H]1CC[C@@H](Oc2ccc3ccccc3n2)CN1C(=O)c1ccccc1-n1nccn1
Ki [1]: 3.9 nM | Ki [3]: 9 nM | Ratio Ki [6]: 2.3

O=C(c1ccccc1-n1nccn1)N1CCC(F)(F)C(Oc2cccc(C(F)(F)F)n2)C1 (stereo not given)
Ki [1]: 240 nM | solubility [2]: Insoluble | Ki [3]: 907 nM | inhibition (INH) [4]: Active | inhibition (INH) [5]: Active | Ratio Ki [6]: 3.8 | inhibition (INH) [7]: Active

O=C(c1ccccc1-n1nccn1)N1CCC(F)(F)C(Oc2ccc(C(F)(F)F)cn2)C1 (stereo not given)
Ki [1]: 14 nM | solubility [2]: Insoluble | Ki [3]: 467 nM | inhibition (INH) [4]: Active | inhibition (INH) [5]: Active | Ratio Ki [6]: 33 | inhibition (INH) [7]: Active

O=C(c1ccccc1-n1nccn1)N1CCC(F)(F)C(Oc2ccc3cccnc3n2)C1 (stereo not given)
Ki [1]: 1160 nM | solubility [2]: Insoluble | Ki [3]: > 1410 nM | inhibition (INH) [4]: Active | inhibition (INH) [5]: Active | inhibition (INH) [7]: Active

O=C(c1cccc2[nH]ccc12)N1CCC(F)(F)[C@@H](Oc2ccc3ccccc3n2)C1
Ki [1]: 0.5 nM | Ki [3]: 120 nM | Ratio Ki [6]: 240 | solubility [8]: 13 µM (≈ 5.3 µg/mL)

O=C(c1ccccc1-n1nccn1)N1CCC(F)(F)C(Oc2nc3ccccc3s2)C1 (stereo not given)
Ki [1]: 2.3 nM | solubility [2]: Insoluble | Ki [3]: 220 nM | inhibition (INH) [4]: Active | inhibition (INH) [5]: Active | Ratio Ki [6]: 96 | inhibition (INH) [7]: Active

O=C(c1ccccc1-n1nccn1)N1CCC(F)(F)C(Oc2ccnc3ccccc23)C1 (stereo not given)
Ki [1]: 7970 nM | solubility [2]: Insoluble | Ki [3]: 277 nM | inhibition (INH) [4]: Active | inhibition (INH) [5]: Active | Ratio Ki [6]: 0.035 | inhibition (INH) [7]: Active

Cc1ccc(-c2ncccn2)c(C(=O)N2CC(COc3ccc(F)cn3)CC[C@H]2C)c1 (stereo not given in full)
Ki [1]: 11 nM | Ki [3]: 11 nM | Ratio Ki [6]: 1.1

O=C(c1ccccc1F)N1CCC(F)(F)C(Oc2ccc3ccccc3n2)C1 (racemic)
Ki [1]: 23 nM | solubility [2]: Insoluble | Ki [3]: > 1770 nM | inhibition (INH) [4]: Active | inhibition (INH) [5]: Active | Ratio Ki [6]: > 77 | inhibition (INH) [7]: Active

O=C(c1cccc(-c2ncc[nH]2)c1)N1CCC(F)(F)[C@@H](Oc2ccc3ccccc3n2)C1
Ki [1]: 0.14 nM | Ki [3]: 193 nM | Ratio Ki [6]: 1000 to 1380

O=C(c1cccn2cncc12)N1CCC(F)(F)C(Oc2ccc3ccccc3n2)C1 (racemic)
Ki [1]: 2.9 nM | Ki [3]: > 12700 nM | Ratio Ki [6]: > 439

O=C(c1ccccc1-n1nccn1)N1CCC(F)(F)C(Oc2cc(C(F)(F)F)ccn2)C1 (stereo not given)
Ki [1]: 292 nM | solubility [2]: Insoluble | Ki [3]: 14 nM | inhibition (INH) [4]: Active | inhibition (INH) [5]: Active | Ratio Ki [6]: 0.05 | inhibition (INH) [7]: Active

O=C(c1ccccc1-n1nccn1)N1CCC(F)(F)C(Oc2nccc3ccccc23)C1 (stereo not given)
Ki [1]: 6.5 nM | solubility [2]: Insoluble | Ki [3]: 2.8 nM | inhibition (INH) [4]: Active | inhibition (INH) [5]: Active | Ratio Ki [6]: 0.43 | inhibition (INH) [7]: Active

O=C(c1ccccc1-n1nccn1)N1CCC(F)(F)C(Oc2ncc3ccccc3n2)C1 (stereo not given)
Ki [1]: 13 nM | solubility [2]: Insoluble | Ki [3]: 1470 nM | inhibition (INH) [4]: Active | inhibition (INH) [5]: Active | Ratio Ki [6]: 113 | inhibition (INH) [7]: Active

COc1ccc(C[C@H]2c3cc(OC)c(OC)cc3CCN2[C@@H](C(=O)NC(C)C)c2ccccc2)cc1OC
Ki [1]: 6 nM

COc1ccc(F)c(C(=O)N2CCC(F)(F)[C@@H](Oc3ccc4ccccc4n3)C2)c1F
Ki [1]: 1.1 nM | solubility [2]: Insoluble | Ki [3]: 1230 nM | inhibition (INH) [4]: Active | INH [5]: 10.8 µM | Ratio Ki [6]: 1120 | INH [7]: 6.7 µM

O=C(c1ccccc1-n1nccn1)N1CCC(F)(F)C(O)C1 (stereo not given)
Ki [1]: 2240 nM | Ki [3]: > 3370 nM

O=C(c1ccccc1-n1nccn1)N1CCC(F)(F)C(Oc2ccccn2)C1 (stereo not given)
Ki [1]: 4050 nM | solubility [2]: Insoluble | Ki [3]: 1040 nM | inhibition (INH) [4]: Active | inhibition (INH) [5]: Active | Ratio Ki [6]: 0.26 | inhibition (INH) [7]: Active

COc1cccc(C(=O)N2CCC(F)(F)C(Oc3ccc4ccccc4n3)C2)c1 (racemic)
Ki [1]: 9.1 nM | solubility [2]: Insoluble | Ki [3]: > 4380 nM | inhibition (INH) [4]: Active | inhibition (INH) [5]: Active | Ratio Ki [6]: > 481 | inhibition (INH) [7]: Active

O=C(c1cccc(-n2cccn2)c1)N1CCC(F)(F)[C@@H](Oc2ccc3ccccc3n2)C1
Ki [1]: 1.1 nM | Ki [3]: 627 nM | Ratio Ki [6]: 570

O=C(c1ccc(F)cc1)N1CCC(F)(F)C(Oc2ccc3ccccc3n2)C1 (racemic)
Ki [1]: 1080 nM | solubility [2]: Insoluble | Ki [3]: > 4380 nM | inhibition (INH) [4]: Active | inhibition (INH) [5]: Active | Ratio Ki [6]: > 4 | inhibition (INH) [7]: Active

O=C(c1ccccc1-n1nccn1)N1CCC(F)(F)C(Oc2nc3ccccc3o2)C1 (stereo not given)
Ki [1]: 49 nM | solubility [2]: Insoluble | Ki [3]: 467 nM | inhibition (INH) [4]: Active | inhibition (INH) [5]: Active | Ratio Ki [6]: 9.5 | inhibition (INH) [7]: Active

COc1ccc(F)c(C(=O)N2CCC(F)(F)C(Oc3ccc4ccccc4n3)C2)c1 (racemic)
Ki [1]: 3.4 nM | solubility [2]: Insoluble | Ki [3]: 1620 nM | inhibition (INH) [4]: Active | INH [5]: 10.8 µM | Ratio Ki [6]: 476 | INH [7]: 6.7 µM

COc1ccccc1C(=O)N1CCC(F)(F)C(Oc2ccc3ccccc3n2)C1 (racemic)
Ki [1]: 24 nM | solubility [2]: Insoluble | Ki [3]: > 2630 nM | inhibition (INH) [4]: Active | inhibition (INH) [5]: Active | Ratio Ki [6]: > 110 | inhibition (INH) [7]: Active

Cc1ccccc1C(=O)N1CCC(F)(F)C(Oc2ccc3ccccc3n2)C1 (racemic)
Ki [1]: 52 nM | solubility [2]: Insoluble | Ki [3]: > 2630 nM | inhibition (INH) [4]: Active | inhibition (INH) [5]: Active | Ratio Ki [6]: > 51 | inhibition (INH) [7]: Active

O=C(c1cccc(F)c1)N1CCC(F)(F)C(Oc2ccc3ccccc3n2)C1 (racemic)
Ki [1]: 91 nM | solubility [2]: Insoluble | Ki [3]: > 4380 nM | inhibition (INH) [4]: Active | inhibition (INH) [5]: Active | Ratio Ki [6]: > 48 | inhibition (INH) [7]: Active

O=C(c1ccccc1-n1nccn1)N1CCC[C@@H](Oc2ccc3ccccc3n2)C1
Ki [1]: 1.4 nM | Ki [3]: 27 nM | Ratio Ki [6]: 19

O=C(c1ccccc1-n1nccn1)N1CCC(F)(F)C(Oc2ccc3ccccc3n2)C1 (racemic)
Ki [1]: 3.9 nM | Ki [3]: 1140 nM | Ratio Ki [6]: 292

O=C(c1cccc2nccn12)N1CCC(F)(F)C(Oc2ccc3ccccc3n2)C1 (racemic)
Ki [1]: 564 nM | Ki [3]: > 3330 nM | Ratio Ki [6]: > 6

O=C(c1cccc(-n2nccn2)c1)N1CCC(F)(F)[C@@H](Oc2ccc3ccccc3n2)C1
Ki [1]: 8.3 nM | Ki [3]: 871 nM | Ratio Ki [6]: 104

O=C(c1cncc2[nH]ccc12)N1CCC(F)(F)[C@@H](Oc2ccc3ccccc3n2)C1
Ki [1]: 0.28 nM | Ki [3]: 108 nM | Ratio Ki [6]: 386

O=C(c1ccccc1)N1CCC(F)(F)C(Oc2ccc3ccccc3n2)C1 (racemic)
Ki [1]: 55 nM | solubility [2]: Insoluble | Ki [3]: > 12700 nM | inhibition (INH) [4]: Active | inhibition (INH) [5]: Active | Ratio Ki [6]: > 230 | inhibition (INH) [7]: Active

O=C(c1ccccc1-c1ncccn1)N1CCC(F)(F)[C@@H](Oc2ccc3ccccc3n2)C1
Ki [1]: 1.8 nM | Ki [3]: 281 nM | Ratio Ki [6]: 156

O=C(c1cccc2ncccc12)N1CCC(F)(F)C(Oc2ccc3ccccc3n2)C1 (racemic)
Ki [1]: 140 nM | Ki [3]: 861 nM | Ratio Ki [6]: 6.2

O=C(c1ccnc2[nH]cnc12)N1CCC(F)(F)C(Oc2ccc3ccccc3n2)C1 (racemic)
Ki [1]: 89 nM | Ki [3]: > 5870 nM | Ratio Ki [6]: > 65

O=C(c1ccccc1-n1nccn1)N1CCC(F)(F)C(Oc2cc3ccccc3cn2)C1 (stereo not given)
Ki [1]: 59 nM | solubility [2]: Insoluble | Ki [3]: 379 nM | inhibition (INH) [4]: Active | inhibition (INH) [5]: Active | Ratio Ki [6]: 6.4 | inhibition (INH) [7]: Active

O=C(c1cccc2cncn12)N1CCC(F)(F)C(Oc2ccc3ccccc3n2)C1 (racemic)
Ki [1]: 52 nM | Ki [3]: > 2100 nM | Ratio Ki [6]: > 40
